Test results from ChEMBL document CHEMBL1201862, “PubChem BioAssay data set” (2004).
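All cell lines were grown in 96-well plates and treated with compound for 48 hours. At the GI50, growth is halved.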 The source made the active and inactive calls. Rule as the data show it: active = GI50 up to about 1.1 µM and inactive = higher.

Tests used:
Assay in all cases: NCI-60 cell line screen, 48 h
M19-MEL = test system: M19-MEL
RXF 631 = test system: RXF 631
DMS-114 = test system: DMS-114
LXFL 529 = test system: LXFL 529
KM-20L2 = test system: KM-20L2
DMS-273 = test system: DMS-273
HOP-18 = test system: HOP-18

Measured: GI50

C[Si](C)(C)/C=C\CCCN1C(=O)CCC1=O
inactive: M19-MEL > 100 µM | RXF 631 > 100 µM | DMS-114 71.1 µM | LXFL 529 > 100 µM | KM-20L2 > 100 µM

CC(c1ccccc1)C(O)S(=O)(=O)O (stereo unspecified)
inactive: M19-MEL > 100 µM | RXF 631 > 100 µM | DMS-114 98.9 µM | DMS-273 > 100 µM | LXFL 529 > 100 µM | KM-20L2 > 100 µM | HOP-18 > 100 µM

N#Cc1cccc(NC(=O)c2ccc(C(=O)O)c(C(=O)c3ccc(C(=O)O)c(C(=O)Nc4cccc(C#N)c4)c3)c2)c1
inactive: M19-MEL > 100 µM | DMS-114 > 100 µM | DMS-273 > 100 µM | LXFL 529 > 100 µM | KM-20L2 > 100 µM | HOP-18 > 100 µM

O=C(CC1(O)C(=O)Nc2ccc([N+](=O)[O-])cc21)c1ccncc1 (stereo unspecified)
inactive: M19-MEL 20.4 µM | RXF 631 20.7 µM | DMS-114 30.5 µM | KM-20L2 76.4 µM | HOP-18 27.8 µM

CCCCNc1nc(C#N)c(N)s1
inactive: RXF 631 > 100 µM | DMS-273 > 100 µM | LXFL 529 > 100 µM | KM-20L2 > 100 µM

CN(C)CC[N+]1=Nc2cccc3cccc(c23)N1
inactive: M19-MEL 47.1 µM | RXF 631 44.5 µM | DMS-114 > 64.3 µM | DMS-273 17.7 µM | LXFL 529 58.1 µM | KM-20L2 40.7 µM

Cc1cc([N+](=O)[O-])ccc1NC(=O)C(=O)C(C(=O)c1ccccc1-c1ccccc1)C1OC(=O)c2ccccc21 (stereo unspecified)
inactive: M19-MEL 12.9 µM | RXF 631 4.75 µM | DMS-114 13.1 µM | DMS-273 4.99 µM | LXFL 529 15.6 µM | KM-20L2 3.48 µM | HOP-18 14.2 µM

Cc1nc2ccccc2c(=O)n1/N=C(\N=N\c1ccc(Cl)cc1)c1cccc(-c2ccco2)c1
inactive: M19-MEL 34.1 µM | DMS-273 27.9 µM | LXFL 529 25.3 µM | KM-20L2 27.3 µM | HOP-18 21.1 µM

O=C(CSSCC(=O)OCCS(=O)(=O)Nc1ccc(Br)cc1)OCCS(=O)(=O)Nc1ccc(Br)cc1
inactive: M19-MEL 15.1 µM | DMS-114 4.26 µM | DMS-273 9.51 µM | LXFL 529 7.1 µM | KM-20L2 22.9 µM | HOP-18 > 100 µM

CCOC(=O)/C(C#N)=C\Sc1ccccc1
inactive: M19-MEL 22 µM | RXF 631 15.7 µM | DMS-114 13.6 µM | DMS-273 16.3 µM | LXFL 529 15 µM | KM-20L2 22.8 µM | HOP-18 > 100 µM

CCOC(=O)C(=Cc1cc(OC)ccc1OC)C(=O)OCC
inactive: M19-MEL 4.07 µM | RXF 631 5.81 µM | DMS-114 2.81 µM | DMS-273 3.75 µM | LXFL 529 3.26 µM | KM-20L2 2.21 µM | HOP-18 11.4 µM

c1ccc(NCn2cnc3ccccc32)cc1
inactive: M19-MEL > 100 µM | RXF 631 > 100 µM | DMS-114 > 100 µM | DMS-273 > 100 µM | LXFL 529 > 100 µM | KM-20L2 6.04 µM | HOP-18 > 100 µM

CN(CCO)c1nc2c(c(=O)[nH]1)CNCC2
inactive: M19-MEL 80.2 µM | DMS-114 > 100 µM | DMS-273 > 100 µM | LXFL 529 > 100 µM | KM-20L2 > 100 µM | HOP-18 > 100 µM

Fc1ccc(C2SCc3nc4ccccc4n32)cc1F (stereo unspecified)
inactive: M19-MEL 28.6 µM | RXF 631 28.8 µM | DMS-114 18.1 µM | DMS-273 26.5 µM | LXFL 529 23.4 µM | KM-20L2 55.5 µM | HOP-18 60.4 µM

COC(=O)C(=O)C(C(=O)C(=O)Nc1ccc(F)cc1)c1nc2ccc([N+](=O)[O-])cc2nc1O (stereo unspecified)
inactive: M19-MEL > 100 µM | RXF 631 > 100 µM | LXFL 529 > 100 µM | KM-20L2 > 100 µM | HOP-18 > 100 µM

COc1cc(/C=C2\[C@H]3c4c(c(OC)c(C)c(OC)c4OC)C[C@@H](C(=O)N2Cc2ccccc2)N3C(=O)OC(C)C)c(OC)c(C)c1OC
inactive: RXF 631 > 100 µM | DMS-114 47.5 µM | DMS-273 25.9 µM | LXFL 529 52.1 µM | KM-20L2 > 100 µM | HOP-18 > 100 µM

Cc1ccccc1-n1c(=O)sc2c(=O)n(-c3ccccc3)c(=S)[nH]c21
inactive: M19-MEL > 100 µM | DMS-114 56.2 µM | DMS-273 > 100 µM | LXFL 529 > 100 µM | KM-20L2 > 100 µM | HOP-18 > 100 µM

NC(=O)C12C3C4C1C1C2C3C41C(N)=O (stereo unspecified)
inactive: M19-MEL > 100 µM | DMS-114 > 100 µM | DMS-273 > 100 µM | LXFL 529 > 100 µM | KM-20L2 > 100 µM | HOP-18 > 100 µM

NC1C[C@H](n2cc(/C=C/Br)c(=O)[nH]c2=O)C[C@@H]1CO (stereo partly specified)
inactive: M19-MEL > 100 µM | DMS-114 > 100 µM | DMS-273 > 100 µM | LXFL 529 50.4 µM | KM-20L2 > 100 µM | HOP-18 > 100 µM

COc1ccc2c(c1)[n+]([O-])c(-c1ccc(OC)c(OC)c1)c(N)[n+]2[O-]
inactive: M19-MEL 54.6 µM | DMS-114 34.1 µM | DMS-273 61.5 µM | LXFL 529 49.8 µM | KM-20L2 42 µM | HOP-18 43.7 µM

Cc1cc2c(c(C(=O)O)c1C)-c1cccc(F)c1C2=O
inactive: M19-MEL > 100 µM | RXF 631 > 100 µM | DMS-114 > 100 µM | DMS-273 > 100 µM | LXFL 529 > 100 µM | KM-20L2 > 100 µM
